{"source": "patent US7358233B2", "about": "“Tetronic acid derivative” (Toudai TLO, Ltd, priority 2001, dated 2008)", "key": {"GRP78 [1]": {"test_system": "GRP78", "test": "Western blotting of GRP78 induction in HT1080 cells under endoplasmic reticulum stress", "assay_type": "cell-based", "settings": "pretreated 30 min, 18 hours", "experimental": "(§1) Specifically, […] HT-29 and HT1080 were cultured in RPMI1640 medium and pretreated for 30 min with 3 μM and 30 μM VST. Next, the GRP78 level was detected 18 hours after each endoplasmic reticulum stress treatment by Western blotting (FIG. 10). […] This phenomenon could be elucidated for the first time by the use of VST."}, "HSP70 heat shock protein": {"test_system": "HSP70 heat shock protein", "test": "Transcriptional activity of HSP70 (no data shown)", "assay_type": "cell-based"}, "GRP78 [2]": {"test_system": "GRP78", "test": "Western blotting of endogenous GRP78 induction in HeLa78C6 cells", "assay_type": "cell-based, human", "experimental": "HeLa78C6 cells were cultured in DMEM media, 30 min before tunicamycin addition each concentration of VST was added, followed by 2 μg/mL of tunicamycin, and treated for 18 hours. The cells were collected, and the induction of GRP78 was detected by Western blotting using anti-GRP78 antibody (Stressgene). As a result, it was confirmed that VST inhibits not only the reporter assay, but also the induction of endogenous molecular chaperone GRP78 at the protein level in a concentration-dependent manner (FIG. 9A).\nFurthermore, HeLa78C6 was cultured by the above-mentioned culturing method and pretreated for 30 min with 50 μM VST. Then, the cells were collected at each time point after the addition of tunicamycin to detect the GRP78 protein level by Western blotting.\nMoreover, the GRP78 level 18 hours after the treatment with each of the indicated endoplasmic reticulum stress-inducing agents was detected using a method similar to that used for FIG. 9A."}, "HT1080 cells": {"test_system": "HT1080 cells", "test": "Apoptosis (sub-G1) of HT1080 cells by propidium iodide FACS analysis", "assay_type": "cell-based", "settings": "for sub-G1 stage induction (apoptosis): 3 μM VST", "experimental": "HT1080 cells were pretreated for 30 min with 3 μM of VST, after fixing the cells the nuclei were stained with propidium iodide for FACS analysis. […] In contrast, only a very limited number of HT1080 cells underwent apoptosis with glucose starvation treatment alone."}, "MDA-MB-231": {"test_system": "MDA-MB-231", "test": "Direct growth suppression, MTT method", "assay_type": "cell-based", "settings": "Homo sapiens, 24 hours, read-out: IC50 of VST", "source_text": "(§2) In this Example, HeLa cells and various other culture cells were used to measure the survival rate during the above-mentioned reporter analysis and VST addition. Specifically, in addition to HeLa cells (human cervical cancer cells), MCF-7 (human breast cancer cells), PC12NH (rat pheochromocytoma), MDA-MB-231 (human breast cancer cells), TIG-3 (human normal fibroblast cells), HeLa 786C cells (human cervical cancer cells), Saos-2 (telomerase and p53-deficient human cancer cells) and SUSM-1 (telomerase-deficient human cancer cells) were used.\n(§3) The direct growth suppression activity of VST on these cells was measured using the MTT method. 100 μL cell suspension (5×10^4/mL) of each of the above-mentioned cells was dispensed into each well of a 96-well plate and cultured for 6 hours at 37° C. After culturing, VST solution diluted stepwise as in Example 4 was added thereto and cultured for another 24 hours. After culturing for 24 hours, 0.05 g/mL MTT solution (10 μL) was added to each well and incubation was performed at 37° C. for 4 hours. The medium was then removed, DMSO (100 μL) was added, and the absorbance at 530 nm was measured (FIG. 8)."}, "TIG-3": {"test_system": "TIG-3", "test": "Direct growth suppression, MTT method", "assay_type": "cell-based", "settings": "Homo sapiens, 24 hours, read-out: IC50 of VST", "source_text": "as §2, §3"}, "Saos-2": {"test_system": "Saos-2", "test": "Direct growth suppression, MTT method", "assay_type": "cell-based", "settings": "Homo sapiens, 24 hours, read-out: IC50 of VST", "source_text": "as §2, §3"}, "SUSM-1": {"test_system": "SUSM-1", "test": "Direct growth suppression, MTT method", "assay_type": "cell-based", "settings": "Homo sapiens, 24 hours, read-out: IC50 of VST", "source_text": "as §2, §3"}, "PC12NH": {"test_system": "PC12NH", "test": "Direct growth suppression, MTT method", "assay_type": "cell-based", "settings": "Rattus norvegicus, 24 hours, read-out: IC50 of VST", "source_text": "as §2, §3"}, "HeLa cells": {"test_system": "HeLa cells", "test": "Direct growth suppression, MTT method", "assay_type": "cell-based", "settings": "Homo sapiens, 24 hours, read-out: IC50 of VST", "source_text": "as §2, §3"}, "GRP78 [3]": {"test_system": "GRP78", "test": "Western blotting of GRP78 induction in HT-29 cells under endoplasmic reticulum stress", "assay_type": "cell-based", "settings": "pretreated 30 min, 18 hours", "experimental": "as §1"}, "HT-29 cells [4]": {"test_system": "HT-29 cells", "test": "Antitumor effect against HT-29 cells transplanted into nude mice", "assay_type": "in vivo", "experimental": "The antitumor effect of VST at the animal level was examined. Specifically, HT-29 cells were transplanted into nude mice and tumor was grown to 100 mm^3. Subsequently, each concentration of VST was administered through the tail vein, progress of cancer was followed each day thereafter, and the tumor was enucleated to compare its size. […] Furthermore, the combined effect with CDDP (cisplatin) was examined."}, "[5]": {"test_system": "HeLa cells and various other culture cells", "test": "Survival rate of a variety of cells, MTT method (all cell lines together)", "assay_type": "cell-based", "source_text": "as §2, §3"}, "HT-29 cells [6]": {"test_system": "HT-29 cells", "test": "Combined use of VST and cisplatin, colony-forming ability of HT-29 cells", "assay_type": "cell-based", "source_text": "Enhancement of endoplasmic reticulum stress response promotes survival of cells under undernutritive conditions, and at the same time allows cells to acquire resistance to antitumor agents. Therefore, the inventors intended to examine the effect of VST on known antitumor agents. […] Therefore, the combined effect with other pharmaceutical agents could not be duly examined. Thus, cisplatin generally used for solid cancer treatment was used to examine the combined effect, due to its activity on cancer cells that is maintained even under low glucose conditions. Specifically, HT-29 cells were cultured by the above-mentioned method, pretreated for 30 min with VST, and then cultured for 18 hours. The cells were then treated for 4 hours with each concentration of cisplatin, and a week later their colony-forming ability was examined."}, "HT-29 cells [7]": {"test_system": "HT-29 cells", "test": "Re-examination of apoptosis inducing effect on HT-29 cells", "assay_type": "cell-based", "source_text": "Since the in vitro strong effect could not be confirmed in the animal experiment, the apoptosis inducing effect of VST on HT-29 cells was reexamined."}}, "note": "pIC50: −log10 of the molar value.", "data": [{"smiles": "CC/C1=C\\C(CO)CC(C)C(OC2CC(O)C(OC3CC(OC)C(OC4CC(O)C(O)C(C)O4)C(C)O3)C(C)O2)C(C)CCCC2(C)C=C(C)C(C)CC23OC(=O)C(=C3O)C(=O)C2(CC)C1C(C)=CC1C(O)CC(=O)C(C)C12", "note": "(stereo not drawn) [VST, versipelostatin]", "values": [{"measurement": "induction of GRP78 by 2-DG", "setting": "GRP78 [1]; 3 μM VST", "value": "inhibits the induction of GRP78"}, {"measurement": "GRP78 induction due to tunicamycin treatment", "setting": "GRP78 [1]; 30 μM VST", "value": "did not inhibit GRP78 induction"}, {"measurement": "influence on the transcriptional activity of HSP70 heat shock protein", "setting": "HSP70 heat shock protein", "value": "no influence"}, {"measurement": "GRP78 protein level, time course", "setting": "GRP78 [2]; 50 μM VST pretreatment 30 min, 12 to 18 hours after tunicamycin 2 μg/mL (FIG. 9B)", "value": "inhibited"}, {"measurement": "selectivity of the effect among endoplasmic reticulum stresses", "setting": "GRP78 [2]; 18 hours (FIG. 9C)", "value": "higher selectivity against 2-deoxyglucose"}, {"measurement": "induction of GRP78 by each endoplasmic reticulum stress-inducing agent", "setting": "GRP78 [2]; 18 hours after treatment (FIG. 9C)", "value": "inhibited the induction of GRP78 against any of the endoplasmic reticulum stresses"}, {"measurement": "induction of endogenous GRP78 at the protein level", "setting": "GRP78 [2]; each concentration of VST 30 min before tunicamycin 2 μg/mL, 18 hours (FIG. 9A)", "value": "inhibits"}, {"measurement": "sub-G1 stage induction (apoptosis)", "setting": "HT1080 cells; glucose starvation condition, after 48 hours", "value": "strong sub-G1 stage induction"}, {"measurement": "sub-G1 stage induction (apoptosis)", "setting": "HT1080 cells; in the presence of glucose", "value": "did not show any effect"}, {"measurement": "induction of apoptosis, sequential changes", "setting": "HT1080 cells; glucose starvation conditions (FIG. 13)", "value": "time-dependent manner"}, {"measurement": "pIC50", "setting": "MDA-MB-231", "value": "< 4.00"}, {"measurement": "pIC50", "setting": "TIG-3", "value": "< 4.00"}, {"measurement": "pIC50", "setting": "Saos-2", "value": "< 4.00"}, {"measurement": "pIC50", "setting": "SUSM-1", "value": "< 4.00"}, {"measurement": "pIC50", "setting": "PC12NH", "value": "< 4.00"}, {"measurement": "pIC50", "setting": "HeLa cells", "value": "< 4.00"}, {"measurement": "induction of GRP78 by 2-DG", "setting": "GRP78 [3]; 3 μM VST", "value": "inhibits the induction of GRP78"}, {"measurement": "GRP78 induction due to tunicamycin treatment", "setting": "GRP78 [3]; 30 μM VST", "value": "did not inhibit GRP78 induction"}, {"measurement": "antitumor effect (tumor size)", "setting": "HT-29 cells [4]; HT-29 tumor grown to 100 mm^3 in nude mice, VST through the tail vein (FIG. 15)", "value": "showed antitumor effect, although the effect was not as strong as cisplatin"}, {"measurement": "combined effect with CDDP (cisplatin)", "setting": "HT-29 cells [4]; HT-29 tumor in nude mice", "value": "no effect due to the combination could be confirmed"}, {"measurement": "degree of decrease of survival rate", "setting": "[5]; VST 100 μg/mL, many cell lines", "value": "≤ 50", "unit": "%"}, {"measurement": "survival rate", "setting": "[5]; VST approximately 10 μg/mL", "value": "slight decrease was observed in a few cell lines"}, {"measurement": "survival rate", "setting": "[5]; VST final concentration of 1 μg/mL, all cell lines", "value": "No decrease in the survival rate was observed"}, {"measurement": "effect of the combined use of VST with cisplatin on colony-forming ability", "setting": "HT-29 cells [6]; VST 300 nM and 500 nM, then cisplatin 4 hours (FIG. 14)", "value": "further enhance the effect of cisplatin"}, {"measurement": "activity on colony-forming ability under glucose starvation condition", "setting": "HT-29 cells [6]; glucose starvation condition", "value": "enhance the activity"}, {"measurement": "apoptosis induction effect", "setting": "HT-29 cells [7]", "value": "fails to express apoptosis induction effect"}, {"measurement": "growth suppression effect in colony forming tests", "setting": "HT-29 cells [7]", "value": "shows growth suppression effect"}]}]}
